As a reminder, the pIC50 is the IC50 on a negative log10 scale, so that one unit is a factor of ten.

Our source for the IC50 values is EP1207159A1, “Aromaheterocyclic derivatives as dopamine D4 receptor antagonists” (TAISHO PHARMACEUTICAL CO. LTD, priority 1993, dated 1999).

In one assay the target is T1, Dopamine D2 Receptor (Rattus norvegicus, UniProt P61169).
T1 construct: Rat striatum was homogenized in 50 mM Tris-hydrochloric acid buffer (pH 7.4), centrifuged at 48,000 × g; from tissue; host or cells: rat striatum membrane
T1 sequence (P61169 whole entry): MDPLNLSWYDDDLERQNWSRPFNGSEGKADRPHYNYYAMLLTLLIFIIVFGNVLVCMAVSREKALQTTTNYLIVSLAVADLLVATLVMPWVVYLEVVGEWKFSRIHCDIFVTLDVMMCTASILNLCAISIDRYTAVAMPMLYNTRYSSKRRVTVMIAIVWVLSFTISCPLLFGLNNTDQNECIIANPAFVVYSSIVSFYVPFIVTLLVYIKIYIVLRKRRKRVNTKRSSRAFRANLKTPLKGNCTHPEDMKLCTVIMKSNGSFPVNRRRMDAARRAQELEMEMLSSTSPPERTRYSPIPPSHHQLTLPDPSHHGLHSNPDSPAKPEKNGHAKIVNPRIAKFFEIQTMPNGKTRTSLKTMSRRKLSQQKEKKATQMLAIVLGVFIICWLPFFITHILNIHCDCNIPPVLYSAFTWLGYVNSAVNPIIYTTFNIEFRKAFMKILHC
Nature of the assay: Dopamine D2 receptor binding assay ([3H]raclopride, rat striatum membrane). Conditions: 50% inhibition of [3H]raclopride (1 nM) binding, 25°C, an hour. As to the method:
Rat striatum membrane was used as a receptor preparation.
[^3H]raclopride was used as [^3H]-labeled ligand.
A binding reaction using the [^3H]-labeled ligand was carried out according to the following method as described in Mol. J. Pharmacol., 43, 749(1993).
Preparation of Receptor Preparation: Rat striatum was homogenized in 50 mM Tris-hydrochloric acid buffer (pH 7.4), centrifuged at 48,000 × g, and the precipitate was washed once with a Tris-hydrochloric acid buffer. The precipitate was suspended in 50 mM Tris-hydrochloric acid buffer (pH 7.4) containing 120 mM NaCl, 1.5 mM KCl, 2 mM CaCl2 and 1 mM MgCl2 to give a membrane preparation.
Dopamine D2 Receptor Binding Assay: The membrane preparation (0.5 mg of protein/ml), [^3H]raclopride (1 nM) and each test drug were reacted at 25°C for an hour.
After completion of the reaction, the reaction solution was filtered by suction through a glass filter (GF/B), and the radioactivity on the filter was determined by a liquid scintillation spectrometer.
The binding under the reaction in the presence of 10 µM haloperidol was defined as non-specific binding of [^3H]raclopride, and the difference between total binding and non-specific binding was defined as specific binding. […]

The next assay addresses T2, human D4.2 receptor (Homo sapiens, UniProt P21917, DEL265-296).
T2 construct: expressed in transfected cells; host or cells: CHO cells (membranes)
T2 sequence (P21917 with tags, fused parts or gaps DEL265-296): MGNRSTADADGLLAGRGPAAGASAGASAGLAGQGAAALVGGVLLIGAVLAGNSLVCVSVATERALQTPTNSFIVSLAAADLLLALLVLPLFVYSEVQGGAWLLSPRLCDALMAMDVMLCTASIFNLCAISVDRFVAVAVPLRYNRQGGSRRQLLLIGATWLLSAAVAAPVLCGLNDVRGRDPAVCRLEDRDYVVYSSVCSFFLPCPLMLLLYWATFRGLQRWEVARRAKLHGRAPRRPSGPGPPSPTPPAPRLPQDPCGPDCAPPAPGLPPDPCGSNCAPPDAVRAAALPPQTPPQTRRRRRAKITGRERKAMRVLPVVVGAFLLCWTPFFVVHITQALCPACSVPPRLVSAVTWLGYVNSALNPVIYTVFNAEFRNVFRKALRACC
The assay can be described thus: Dopamine D4 receptor binding assay ([3H]spiperone, CHO cell membranes). To be noted: 50% inhibition of [3H]spiperone binding; CHO cell membranes expressing human D4.2 receptor; 27°C, 2 hours. The protocol: Chinese hamster ovarium (CHO) cell membranes wherein human D4.2 receptor was expressed were used as a receptor preparation.
[^3H]spiperone was used as [^3H]-labeled ligand.
A binding reaction using the [^3H]-labeled ligand was carried out according to the following method as described in Eur. J. Pharmacol., 233, 173(1993).
Dopamine D4.2 Receptor Binding Assay: The CHO cell membranes wherein human D4.2 receptor was expressed, [^3H]spiperone ([…]) and each test drug were reacted in 50 mM Tris-hydrochloric acid buffer (pH 7.4) containing 5 mM EDTA, 1.5 mM CaCl2, 5 mM KCl and 120 mM NaCl at 27°C for 2 hours.
After completion of the reaction, the reaction solution was filtered by suction through a glass filter (GF/B), and the radioactivity on the filter was measured by a liquid scintillation spectrometer.
The binding under the reaction in the presence of 10 µM haloperidol was defined as non-specific binding of [^3H]spiperone, and the difference between the total binding and the non-specific binding was defined as specific binding.

pIC50: −log10 of the molar value. Where a name gives a salt, the structure may show the parent alone.

`Fc1ccc(C=C2CCN(CCc3cn[nH]c3-c3ccccc3)CC2)cc1` [Compound A-05]: the negative-log IC50 (pIC50) was 7.05 on Dopamine D2 Receptor and 8.95 on human D4.2 receptor.

Regarding `CSc1ncc(CCN2CCC(=Cc3ccccc3F)CC2)c(-c2ccc(F)cc2)n1` [Compound A-14, 4-(4-fluorophenyl)-5-[2-[4-(2-fluorobenzylidene)piperidin-1-yl]ethyl]-2-methylthiopyrimidine dihydrochloride], the negative logarithm of the IC50 (pIC50) on Dopamine D2 Receptor was 6.83; on human D4.2 receptor it was 7.90.

Regarding `Fc1ccc(-c2ncncc2CCN2CCC(=Cc3cccc(F)c3)CC2)cc1` [Compound A-11], the pIC50 at Dopamine D2 Receptor was 6.28; on human D4.2 receptor, 8.34.
